Assay results taken from patent publication US20030073695A1, “Methods of use of gemifloxacin compounds against fluoroquinolone resistant Streptococcus pneumoniae bacteria” (priority 2000, published 2003).
Converted amounts (≈) assume the structure as drawn.

Columns and labels:
[1] = system: S. pneumoniae with reduced susceptibility to CIP; assay: MIC by NCCLS microbroth dilution, 80 clinical isolates with CIP MIC ≧2 μg/ml; assay type: cell-based; details: Streptococcus pneumoniae, 80 isolates with CIP MICs ≧2 μg/ml
Protocol: MICs to penicillin (herein “PEN”), CIP, levofloxacin (herein “LEV”), TFX, moxifloxacin (herein “MOX”), grepafloxacin (herein “GRE”), gatifloxacin (herein “GAT”), sparfloxacin (herein “SPA”), and gemifloxacin (herein “GFX”) were determined using a microbroth dilution technique described by the NCCLS. Topoisomerase IV (parC) and DNA gyrase (gyrA) mutations were confirmed by sequencing the QRDR region of each gene. Serotyping and PFGE were performed on all isolates. […] Breakpoints have not been established for all fluoroquines, thus percentage resistance was not calculated.

[2] = system: CFX and TFX susceptible and resistant S. pneumoniae; assay: Postantibiotic effect (PAE), 2 hour exposure, viable colony counting; assay type: cell-based, Streptococcus pneumoniae; details: for mean PAE at 4× MIC: exposure 2 hours at 4× MIC; for mean PAE at 10× MIC: exposure 2 hours at 10× MIC
Protocol: This invention was based, in part, on analyses evaluating the comparative activity of gemifloxacin against various strains of S. pneumoniae.
MICs were determined using a microbroth dilution technique described by the NCCLS. Topisomeriase IV (parC) and DNA gyrase (gyrA) mutations were confirmed by sequencing the QRDR region of each gene. […] Antibiotics were removed using dilution into sterile media and the PAE assessed using a viable colony counting technique.

[3] = isolates susceptible to the tested drug
[4] = GFX, isolates not restricted to susceptible

COc1c(N2CCNC(C)C2)c(F)cc2c(=O)c(C(=O)O)cn(C3CC3)c12 (centres unmarked) [GAT, gatifloxacin]
MIC50 ([1]; MIC50 of Table 1): 0.5 µg/mL (≈ 1.33 µM)
MIC50 ([1]; Table 1 MIC50): 4 µg/mL (≈ 10.7 µM)
MIC [1]: 0.25 to 8 µg/mL (≈ 0.666 to 21.3 µM)

N[C@@H]1[C@H]2CN(c3nc4c(cc3F)c(=O)c(C(=O)O)cn4-c3ccc(F)cc3F)C[C@@H]12 [TFX, trovafloxacin]
mean PAE at 4× MIC [2, 3]: 2.1 h
mean PAE at 10× MIC [2, 3]: 3.2 h
MIC50 ([1]; MIC50 of Table 1): 0.5 µg/mL (≈ 1.2 µM)
MIC50 ([1]; Table 1 MIC50): 4 µg/mL (≈ 9.61 µM)
MIC [1]: 0.06 to 8 µg/mL (≈ 0.144 to 19.2 µM)

C[C@H]1COc2c(N3CCN(C)CC3)c(F)cc3c(=O)c(C(=O)O)cn1c23 [LEV, levofloxacin]
MIC50 ([1]; MIC50 of Table 1): 2 µg/mL (≈ 5.53 µM)
MIC50 ([1]; Table 1 MIC50): 16 µg/mL (≈ 44.3 µM)
MIC [1]: 1 to 32 µg/mL (≈ 2.77 to 88.6 µM)

C[C@@H]1CN(c2c(F)c(N)c3c(=O)c(C(=O)O)cn(C4CC4)c3c2F)C[C@H](C)N1 [SPA, sparfloxacin]
MIC50 ([1]; MIC50 of Table 1): 0.5 µg/mL (≈ 1.27 µM)
MIC50 ([1]; Table 1 MIC50): 16 µg/mL (≈ 40.8 µM)
MIC [1]: 0.25 to 32 µg/mL (≈ 0.637 to 81.5 µM)

Cc1c(F)c(N2CCNC(C)C2)cc2c1c(=O)c(C(=O)O)cn2C1CC1 (centres unmarked) [GRE, grepafloxacin]
MIC50 ([1]; MIC50 of Table 1): 0.5 µg/mL (≈ 1.39 µM)
MIC50 ([1]; Table 1 MIC50): 8 µg/mL (≈ 22.3 µM)
MIC [1]: 0.12 to 8 µg/mL (≈ 0.334 to 22.3 µM)

CO/N=C1\CN(c2nc3c(cc2F)c(=O)c(C(=O)O)cn3C2CC2)CC1CN (racemic) [GFX, (R,S)-7-(3-aminomethyl-4-methoxyiminopyrrolidin-1-yl)-1-cyclopropyl-6-fluoro-4-oxo-1,4-dihydro-1,8-naphthyridine-3-carboxylic acid]
mean PAE at 4× MIC [2, 4]: 2.7 h
mean PAE at 10× MIC [2, 4]: 3.8 h
difference in duration of PAE between CFX or TFX susceptible and resistant strains ([2]; p<0.05): no significant difference
MIC50 ([1]; MIC50 of Table 1): 0.06 µg/mL (≈ 0.154 µM)
MIC50 ([1]; Table 1 MIC50): 0.25 µg/mL (≈ 0.642 µM)
MIC [1]: 0.03 to 0.5 µg/mL (≈ 0.077 to 1.28 µM)

COc1c(N2C[C@@H]3CCCN[C@@H]3C2)c(F)cc2c(=O)c(C(=O)O)cn(C3CC3)c12 [MOX, moxifloxacin]
MIC50 ([1]; MIC50 of Table 1): 0.25 µg/mL (≈ 0.623 µM)
MIC50 ([1]; Table 1 MIC50): 2 µg/mL (≈ 4.98 µM)
MIC [1]: 0.12 to 4 µg/mL (≈ 0.299 to 9.96 µM)
